Experimental data published in US20100221763A1, “Specific Acceptors for Transferases to Saccharides and Method for Obtaining and Using Same” (Health Research, Inc, priority 2005, published 2010).

Legend:
[1] = target: T1, Rat recombinant α2,3(O)ST (Rattus norvegicus, UniProt Q11205); experiment: Sialyltransferase assay with cloned α2,3(O)ST; format: biochemical; settings: for Km / Vmax: CMP-NeuAc 150 μM, Lineweaver-Burke plot
T1 construct: purchased Calbiochem
T1 sequence (Q11205 1-350): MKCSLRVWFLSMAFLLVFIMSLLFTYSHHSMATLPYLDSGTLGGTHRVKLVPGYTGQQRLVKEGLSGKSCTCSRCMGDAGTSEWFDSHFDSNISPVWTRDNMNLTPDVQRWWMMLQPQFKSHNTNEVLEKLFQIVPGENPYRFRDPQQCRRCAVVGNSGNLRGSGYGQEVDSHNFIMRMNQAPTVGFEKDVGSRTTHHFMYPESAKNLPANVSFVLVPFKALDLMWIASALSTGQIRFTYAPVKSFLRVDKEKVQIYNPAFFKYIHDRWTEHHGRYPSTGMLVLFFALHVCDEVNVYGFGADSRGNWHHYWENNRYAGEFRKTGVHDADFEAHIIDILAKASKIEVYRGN
Protocol: (§1) Rat recombinant α2,3(O)ST, α2,3(N)ST and α2,6(N)ST were purchased from Calbiochem and stored at either −20° C. or −70° C. as recommended by the supplier. […] 10 μl aliquots of the diluted enzymes were used in the assays run in duplicate.
(§2) The incubation mixtures run in duplicate contained 0.1M NaCacodylate buffer pH6.0, the acceptor (typically at 7.5 mM, or as indicated in some experiments), CMP-[9 ^3H] NeuAc (typically 0.2 μci; 20 μci/nmol or as indicated in some experiments) and the enzyme in a total volume of 20 μl. The control incubation mixtures contained everything except the acceptor. Incubation was carried out for 2 h at 37° C. The enzymatic transfer of [9-^3H] NeuAc to a typical acceptor was linear for 2 h and less than 30% CMP-[9-^3H] NeuAc was utilized. Chromatography, using either Dowex-1-Formate, Sep-Pak C18 or Biogel P2, was applied to separate radioactive product from un-reacted [9-^3H] NeuAc as described below.
(§3) The radioactive products from neutral allyl and methyl glycosides as well as non-glycosides were measured by fractionation on Dowex-1-Formate (Bio-Rad: AG-1X8; 200-400 mesh; format form) as follows: The incubation mixture was diluted with 1.0 ml water and passed through AG-1-formate column (1.0 ml bed volume in a Pasteur pipet which had been washed with 5 ml of 2M Formic acid followed by 10 ml water). The column was washed twice with 1.0 ml water after the entry of the sample and then eluted with 3.0 ml of 0.1M NaCl. The radioactivity present in water and 0.1M NaCl eluates were measured separately using 3a70 scintillation cocktail (Research Products International, Mount Prospect, Ill.) and a Beckman LS6500 scintillation counter. The CPM values were corrected by subtracting the blank CPM. Any radioactivity present in the water eluate (as noticed in the case of some methylglycosides) was added to the corresponding CPM value of 0.1M NaCl eluate. The radioactive products from sulfated and/or sialylated methylglycosides were also measured by the above procedure, only the elution of the AG-1-Formate column was continued further with 3.0 ml of 0.2M NaCl for achieving a complete elution of the radioactive product, a correction being made as before by subtracting the corresponding blank values.
(§4) The radioactive products from benzylglycosides and monosialylated benzylglycosides were measured by hydrophobic chromatography on Sep-Pak C18 cartridge (Waters, Milford, Mass.) and eluting the product with 3.0 ml methanol (30). The radioactivity was determined by liquid scintillation as above.
(§5) For such work, a Biogel P2 column (Fine Mesh; 1.0×116.0 cm) was used with 0.1M pyridine acetate pH5.4 as the eluent at room temperature. The effluent fractions were monitored for radioactivity and the first peak containing radioactivity was collected, lyophilized to dryness, dissolved in 200 μl of water and stored frozen at −20° C. for thin layer chromatography (TLC) and other experimentation.

[2] = system: LNCaP α2,3(O)ST; experiment: Sialyltransferase assay with LNCaP cell extract; format: biochemical, human
Protocol: The prostate carcinoma cell line, LNCaP, was grown in RPMI 1640 supplemented with 10% fetal bovine serum and antibiotics (penicillin, streptomycin and amphotericin B) under conditions recommended by American Type Culture Collection (Manassas, Va.). The cells were homogenized with 0.1M Tris-Maleate pH6.3 containing 2% Triton X-100 using a Dounce all glass hand-operated homogenizer. The homogenate was centrifuged at 16,000 g for 1 h at 4° C. Protein concentration in supernatant was measured using the BCA assay (Pierce Biotech, Inc., Rockford, Ill.), with BSA as the standard. The supernatant was adjusted to 5 mg protein/ml by adding the necessary amount of extraction buffer and then stored frozen at −20° C. until use. 10 μl aliquot of this extract was used in assays run in duplicate.
as §2, §3, §4, §5

[3] = target: T2, Rat recombinant α2,3(N)ST (Rattus norvegicus, UniProt Q02734); experiment: Sialyltransferase assay with cloned α2,3(N)ST; format: biochemical; settings: Table I; acceptor 7.5 mM; 100% = 29520 CPM (Galβ1,4GlcNAcβ-O—Al)
T2 construct: purchased Calbiochem
T2 sequence (Q02734 29-374 limits assumed): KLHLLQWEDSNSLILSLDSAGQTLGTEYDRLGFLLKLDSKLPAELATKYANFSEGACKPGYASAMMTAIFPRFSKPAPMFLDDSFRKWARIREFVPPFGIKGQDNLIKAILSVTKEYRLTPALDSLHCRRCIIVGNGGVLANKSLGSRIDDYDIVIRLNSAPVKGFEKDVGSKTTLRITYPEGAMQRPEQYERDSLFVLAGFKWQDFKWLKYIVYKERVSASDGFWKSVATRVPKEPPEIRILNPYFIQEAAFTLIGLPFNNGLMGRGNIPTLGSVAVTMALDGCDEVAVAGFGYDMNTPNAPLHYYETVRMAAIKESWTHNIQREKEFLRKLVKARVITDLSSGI
Protocol: as §1, §2, §3, §4, §5

[4] = Table II, acceptor 0.75 mM, relative to Galβ1,3GalNAcα-O-Bn
[5] = Table II, acceptor 7.5 mM, relative to Galβ1,3GalNAcα-O-Bn
[6] = Table I, acceptor 7.5 mM, 100% = 40560 CPM (3-O-MeGalβ1,4GlcNAcβ1,6(Galβ1,3)GalNAcα-O-Bn)
[7] = Table I, acceptor 7.5 mM, 100% = 30930 CPM (3-O-MeGalβ1,4GlcNAcβ1,6(Galβ1,3)GalNAcα-O-Bn)
[8] = Table IV, compound 7.5 mM, relative to Galβ1,3(GlcNAcβ1,6)GalNAcα-O—Al

Compound | Sialyltransferase activity (%) Cloned α2,3(O)ST [1, 4] | Km [1] | Vmax [1] | Sialyltransferase activity (%) LNCaP α2,3(O)ST [2, 4] | also measured
COC[C@H]1O[C@H](OCc2ccccc2)[C@H](NC(C)=O)[C@@H](O[C@@H]2O[C@H](CO)[C@H](O)[C@H](O)[C@H]2O)[C@H]1O [Galβ1,3(6-O-Me)GalNAcα-O-Bn] | 107.6^11% | – | – | 119.2% | Sialyltransferase activity (%) Cloned α2,3(O)ST [1, 5]: 107.3^11%; Sialyltransferase activity (%) LNCaP α2,3(O)ST [2, 5]: 189.4%
COC1OC(CO)C(O)C(OC2OC(CO)C(O)C(OC3OC(CO)C(O)C(OS(=O)(=O)O)C3O)C2NC(C)=O)C1O (centres unmarked) [3-O-SulfoGalβ1,3GalNAcβ1,3Galα-O-Me] | – | 1250 µM | 416 pmol/h | – | –
CO[C@H]1O[C@H](CO[C@@H]2O[C@H](CO)[C@@H](O[C@@H]3O[C@H](CO)[C@H](O)[C@H](O)[C@H]3NC(C)=O)[C@H](O[C@@H]3O[C@@H](C)[C@@H](O)[C@@H](O)[C@@H]3O)[C@H]2NC(C)=O)[C@H](O)[C@H](O[C@@H]2O[C@H](CO)[C@H](O)[C@H](O)[C@H]2O)[C@H]1NC(C)=O [GalNAcβ1,4(Fucα1,3)GlcNAcβ1,6(Galβ1,3)GalNAcα-O-Me] | – | – | – | – | Sialyltransferase activity (%) Cloned α2,3(O)ST [1, 6]: 134.9%; Sialyltransferase activity (%) LNCaP α2,3(O)ST [2, 7]: 21.1%
COC1OC(COC2OC(COS(=O)(=O)O)C(OC3OC(CO)C(O)C(OC4(C(=O)O)CC(O)C(NC(C)=O)C(C(O)C(O)CO)O4)C3O)C(OC3OC(C)C(O)C(O)C3O)C2NC(C)=O)C(O)C(OC2OC(CO)C(O)C(O)C2O)C1NC(C)=O (centres unmarked) [NeuAcα2,3Galβ1,4(6-O-Sulfo)(Fucα1,3)GlcNAcβ1,6(Galβ1,3)GalNAcα-O-Me] | – | – | – | – | Sialyltransferase activity (%) Cloned α2,3(O)ST [1, 6]: 7.4%
COC[C@H]1O[C@H](OCc2ccccc2)[C@H](NC(C)=O)[C@@H](O[C@@H]2O[C@H](CO)[C@H](O)[C@H](OC)[C@H]2O)[C@H]1O [3-O-MeGalβ1,3(6-O-Me)GalNAcα-O-Bn] | 55.9% | – | – | 1.1% | –
CC(=O)N[C@H]1[C@H](OC[C@H]2O[C@H](OCc3ccccc3)[C@H](NC(C)=O)[C@@H](O[C@@H]3O[C@H](CO)[C@H](O)[C@H](O)[C@H]3O[C@@H]3O[C@@H](C)[C@@H](O)[C@@H](O)[C@@H]3O)[C@H]2O)O[C@H](CO)[C@@H](O)[C@@H]1O [Fucα1,2Galβ1,3(GlcNAcβ1,6)GalNAcα-O-Bn] | – | 1820 µM | 197 pmol/h | – | Sialyltransferase activity (%) Cloned α2,3(O)ST [1, 8]: 45.4%
CO[C@@H]1[C@H](O)[C@@H](O)[C@H](O[C@H]2[C@@H](O)[C@@H](CO)O[C@H](OCc3ccccc3)[C@@H]2NC(C)=O)O[C@@H]1CO [4-O-MeGalβ1,3GalNAcα-O-Bn] | 104.6^9% | 130 µM | 1250 pmol/h | 141.5% | Sialyltransferase activity (%) Cloned α2,3(O)ST [1, 5]: 105.0^9%; Sialyltransferase activity (%) LNCaP α2,3(O)ST [2, 5]: 188.7%
CO[C@H]1[C@@H](O)[C@@H](CO)O[C@@H](O[C@H]2[C@@H](O)[C@@H](CO[C@@H]3O[C@H](CO)[C@@H](O)[C@H](O)[C@H]3NC(C)=O)O[C@H](OCc3ccccc3)[C@@H]2NC(C)=O)[C@@H]1O [3-O-MeGalβ1,3(GlcNAcβ1,6)GalNAcα-O-Bn, 3-O-MeGalβ1,3(GlcNAcβ1,6) GalNAcα-O-Bn] | – | – | – | – | Sialyltransferase activity (%) Cloned α2,3(O)ST [1, 8]: 24.7%
CC(=O)N[C@H]1[C@H](OC[C@H]2O[C@H](OCc3ccccc3)[C@H](NC(C)=O)[C@@H](O[C@@H]3O[C@H](CO)[C@H](O)[C@H](O[C@@]4(C(=O)O)C[C@H](O)[C@@H](NC(C)=O)[C@H]([C@H](O)[C@H](O)CO)O4)[C@H]3O)[C@H]2O)O[C@H](CO)[C@@H](O[C@@H]2O[C@H](CO)[C@H](O)[C@H](O)[C@H]2O)[C@@H]1O[C@@H]1O[C@@H](C)[C@@H](O)[C@@H](O)[C@@H]1O [Galβ1,4(Fucα1,3)GlcNAcβ1,6(NeuAcα2,3Galβ1,3)GalNAcα-O-Bn] | – | – | – | – | Sialyltransferase activity (%) Cloned α2,3(N)ST [3]: 27.1%
CC(=O)NC1C(OC2C(O)C(CO)OC(OC3C(CO)OC(OCc4ccccc4)C(NC(C)=O)C3O)C2O)OC(CO)C(OC2OC(CO)C(O)C(O)C2O)C1O (centres unmarked) [Galβ1,4GlcNAcβ1,3Galβ1,4GlcNAcβ-O-Bn] | – | – | – | – | Sialyltransferase activity (%) Cloned α2,3(O)ST [1, 6]: 8.7%
COC1OC(COC2OC(CO)C(OC3OC(CO)C(O)C(OC4(C(=O)O)CC(O)C(NC(C)=O)C(C(O)C(O)CO)O4)C3O)C(O)C2NC(C)=O)C(O)C(OC2OC(CO)C(O)C(O)C2O)C1NC(C)=O (centres unmarked) [NeuAcα2,3Galβ1,4GlcNAcβ1,6(Galβ1,3)GalNAcα-O-Me] | – | – | – | – | Sialyltransferase activity (%) Cloned α2,3(O)ST [1, 6]: 35.2%; Sialyltransferase activity (%) LNCaP α2,3(O)ST [2, 7]: 5.1%
CC(=O)NC1C(OCC2OC(OCc3ccccc3)C(NC(C)=O)C(OC3OC(CO)C(O)C(OS(=O)(=O)O)C3O)C2O)OC(CO)C(O)C1O (centres unmarked) [3-O-SulfoGalβ1,3(GlcNAcβ1,6)GalNAcα-O-Bn, 3-O-SulfoGalβ1,3(GlcNAcβ1,6) GalNAcα-O-Bn] | – | – | – | – | Sialyltransferase activity (%) Cloned α2,3(O)ST [1, 8]: 54.7%

Continued, in another order:

Sialyltransferase activity (%) Cloned α2,3(O)ST [1, 4] | Km [1] | Vmax [1] | Compound | Sialyltransferase activity (%) LNCaP α2,3(O)ST [2, 4] | also measured
104.6^10% | 250 µM | 1442 pmol/h | CC(=O)N[C@H]1[C@@H](OCc2ccccc2)O[C@H](CO)[C@H](O)[C@@H]1O[C@@H]1O[C@H](CO)[C@H](F)[C@H](O)[C@H]1O [4-F-Galβ1,3GalNAcα-O-Bn] | 44.8% | Sialyltransferase activity (%) Cloned α2,3(O)ST [1, 5]: 102.3^10%; Sialyltransferase activity (%) LNCaP α2,3(O)ST [2, 5]: 105.1%
70.4% | – | – | CO[C@H]1[C@@H](O)[C@@H](CO)O[C@@H](O[C@H]2[C@@H](O)[C@@H](CO)O[C@H](OCc3ccccc3)[C@@H]2NC(C)=O)[C@@H]1O [3-O-MeGalβ1,3GalNAcα-O-Bn] | 2.6% | Sialyltransferase activity (%) Cloned α2,3(O)ST [1, 5]: 101.8%; Sialyltransferase activity (%) LNCaP α2,3(O)ST [2, 5]: 15.5%
– | 2000 µM | 624 pmol/h | CO[C@H]1O[C@H](CO)[C@H](O)[C@H](O[C@@H]2O[C@H](CO)[C@H](O)[C@H](O[C@@H]3O[C@H](C)[C@H](O)[C@H](OS(=O)(=O)O)[C@H]3O)[C@H]2NC(C)=O)[C@H]1O [3-O-SulfoD-Fucβ1,3GalNAcβ1,3Galα-O-Me] | – | –
